Data from patent US7217722B2 (Kirin Beer Kabushiki Kaisha, priority 2000, dated 2007).

These molecules were tested against Rho kinase (fused protein of bovine Rho kinase catalyst region and glutathione S-transferase) (Bos taurus, UniProt Q28021) (assay: Rho kinase inhibitory activity (phosphorylation of S6 231–239 substrate, γ32P-ATP)). Conditions: concentration inhibiting substrate phosphorylation by 50%.
Assay type: biochemical
Protocol: This permits the substrate to be labeled with the radioisotope.
Thereafter, the substrate was adsorbed to a filter paper. ATP was washed away with a phosphoric acid solution, and the amount of the phosphorylated substrate was then measured with a liquid scintillation counter.

Rho kinase (fused protein of bovine Rho kinase catalyst region and glutathione S-transferase), sequence (Q28021 92-354 limits assumed): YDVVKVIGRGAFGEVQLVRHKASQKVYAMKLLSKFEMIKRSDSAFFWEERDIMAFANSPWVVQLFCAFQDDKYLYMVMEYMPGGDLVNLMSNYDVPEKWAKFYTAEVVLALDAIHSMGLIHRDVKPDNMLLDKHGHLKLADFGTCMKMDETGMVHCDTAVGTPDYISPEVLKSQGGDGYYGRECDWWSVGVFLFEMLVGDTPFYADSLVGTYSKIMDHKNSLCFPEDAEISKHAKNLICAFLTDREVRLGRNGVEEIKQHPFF

Compound	IC50
c1ccc(NC2CCC(Nc3ccc4[nH]ncc4c3)CC2)cc1 (centres unmarked) [Example 172, N1-(1H-5-Indazolyl)-N4-phenyl-1,4-cyclohexanediamine]	265 nM
O=C(/C=C/c1cccc(O)c1)Nc1ccc2[nH]ncc2c1 [Example 36, N1-(1H-5-Indazolyl)-(E)-3-(3-hydroxyphenyl)-2-propeneamide]	600 nM
O=[N+]([O-])c1ccc(CN2CCC(Nc3ccc4[nH]ncc4c3)C2)cc1 (centres unmarked) [Example 159, N-(1H-5-Indazolyl)-N-[1-(4-nitrobenzyl)tetrahydro-1H-3-pyrrolyl]amine]	12 nM
FC(F)(F)c1ccc(CN2CCC(Nc3ccc4[nH]ncc4c3)CC2)cc1 [Example 118, N-(1H-5-Indazolyl)-N-{1-[4-(trifluoromethyl)benzyl]-4-piperidyl}amine]	275 nM
O=C(/C=C/c1ccc(O)cc1)Nc1ccc2[nH]ncc2c1 [Example 37, N1-(1H-5-Indazolyl)-(E)-3-(4-hydroxyphenyl)-2-propeneamide]	305 nM
Cc1ccc(CN2CCC(Nc3ccc4[nH]ncc4c3)CC2)cc1[N+](=O)[O-] [Example 124]	238 nM
CCC(=O)c1cc(F)c(OCC(=O)Nc2ccncc2)c(F)c1 [Example 29, N1-(4-Pyridyl)-2-(2,6-difluoro-4-propionyl-phenoxy)acetamiden]	8590 nM
Clc1cccc(CN2CCCC(Nc3ccc4[nH]ncc4c3)C2)c1 (centres unmarked) [Example 162, N-[1-(3-Chlorobenzyl)-3-piperidyl]-N-(1H-5-indazolyl)amine]	19 nM
O=C(Nc1ccncc1)Nc1c(Cl)cc(Cl)cc1Cl [Example 1, N-(4-Pyridyl)-N′-(2,4,6-trichlorophenyl)urea]	200 nM
Fc1cccc(CN2CCC(Nc3ccc4[nH]ncc4c3)CC2)c1 [Example 117, N-[1-(3-Fluorobenzyl)-4-piperidyl]-N-(1H-5-indazolyl)amine]	317 nM
COc1cccc(CN2CCC(Nc3ccc4[nH]ncc4c3)CC2)c1 [Example 119, N-(1H-5-Indazolyl)-N-[1-(3-methoxybenzyl)-4-piperidyl]amine]	383 nM
COc1cc(CN2CCC(Nc3ccc4[nH]ncc4c3)CC2)cc(OC)c1 [Example 143, N-[1-(3,5-Dimethoxybenzyl)-4-piperidyl]-N-(1H-5-indazolyl)amine]	399 nM
O=C(NCC1CCCCC1)Nc1ccc2[nH]ncc2c1 [Example 105, N-Cyclohexylmethyl-N′-(1H-5-indazolyl)urea]	390 nM
O=C(COc1c(Cl)cccc1Cl)Nc1ccc2[nH]ncc2c1 [Example 14, N1-(1H-5-Indazolyl)-2-(2,6-dichlorophenoxy)acetamide]	1140 nM
COc1ccc(CN2CCCC(Nc3ccc4[nH]ncc4c3)C2)cc1 (centres unmarked) [Example 166, N-(1H-5-Indazolyl)-N-[1-(4-methoxybenzyl)-3-piperidyl]amine]	16 nM
O=C(NCc1c(Cl)cccc1Cl)Nc1ccc2[nH]ncc2c1 [Example 106, N-(2,6-Dichlorobenzyl)-N′-(1H-5-indazolyl)urea]	1400 nM
Clc1cccc(CN2CCC(Nc3ccc4[nH]ncc4c3)CC2)c1 [Example 135, N-[1-(3-Chlorobenzyl)-4-piperidyl]-N-(1H-5-indazolyl)amine]	285 nM

Compound	IC50
Cc1ccc(CN2CCC(Nc3ccc4[nH]ncc4c3)C2)cc1 (centres unmarked) [Example 157, N-(1H-5-Indazolyl)-N-[1-(4-methylbenzyl)tetrahydro-1H-3-pyrrolyl]amine]	22 nM
Clc1ccccc1CN1CCC(Nc2ccc3[nH]ncc3c2)C1 (centres unmarked) [Example 151, N-[1-(2-Chlorobenzyl)tetrahydro-1H-3-pyrrolyl]-N-(1H-5-indazolyl)amine]	45 nM
O=C(CC1CCCCC1)Nc1ccc2[nH]ncc2c1 [Example 34, N1-(1H-5-Indazoyl)-1-cyclohexylacetamide]	870 nM
O=C(Nc1ccc2[nH]ncc2c1)C1CCCCC1 [Example 33]	470 nM
Clc1ccc(CN2CCCC(Nc3ccc4[nH]ncc4c3)C2)cc1 (centres unmarked) [Example 163, N-[1-(4-Chlorobenzyl)-3-piperidyl]-N-(1H-5-indazolyl)amine]	11 nM
c1ccc(Oc2cccc(CN3CCC(Nc4ccc5[nH]ncc5c4)CC3)c2)cc1 [Example 123, N-(1H-5-Indazolyl)-N-[1-(3-phenoxybenzyl)-4-piperidyl]amine]	220 nM
c1cncc(CN2CCC(Nc3ccc4[nH]ncc4c3)CC2)c1 [Example 132, N-(1H-5-Indazolyl)-N-[1-(3-pyridylmethyl)-4-piperidyl]amine]	603 nM
O=C(COc1c(Cl)cc(F)cc1Cl)Nc1ccc2[nH]ncc2c1 [Example 15, N1-(1H-5-Indazolyl)-2-(2,6-dichloro-4-fluorophenoxy)acetamide]	460 nM
COC(=O)c1ccc(CN2CCC(Nc3ccc4[nH]ncc4c3)CC2)cc1 [Example 148, Methyl 4-{[4-(1H-5-indazolylamino)piperidino]methyl}benzoate]	166 nM
Brc1cccc(CN2CCC(Nc3ccc4[nH]ncc4c3)CC2)c1 [Example 23]	124 nM
c1cc(CN2CCC(Nc3ccc4[nH]ncc4c3)CC2)ccn1 [Example 133, N-(1H-5-Indazolyl)-N-[1-(4-pyridylmethyl)-4-piperidyl]amine]	680 nM
Brc1ccc(CN2CCC(Nc3ccc4[nH]ncc4c3)C2)cc1 (centres unmarked) [Example 155, N-[1-(4-Bromobenzyl)tetrahydro-1H-3-pyrrolyl]-N-(1H-5-indazolyl)amine]	24 nM
c1cc2[nH]ncc2cc1NC1CCCCC1 [Example 129, N-Cyclohexyl-N-(1H-5-indazolyl)amine]	670 nM
Clc1cc2c(cc1CN1CCC(Nc3ccc4[nH]ncc4c3)CC1)OCO2 [Example 144, N-{1-[(6-Chloro-1,3-benzodioxol-5-yl)methyl]-4-piperidyl}-N-(1H-5-indazolyl)amine]	453 nM
O=C(COc1c(Cl)cc(F)cc1Cl)Nc1ncnc2[nH]ncc12 [Example 32, N1-(1H-Pyrazolo[3,4-d]pyrimidin-4-yl)-2-(2,6-dichloro-4-fluorophenoxy)acetamide]	1370 nM
Oc1ccc(CN2CCC(Nc3ccc4[nH]ncc4c3)CC2)cc1 [Example 145, 4-{[4-(1H-5-Indazolylamino)piperidino]methyl}phenol]	290 nM
NC(=O)c1ccc(NC(=O)Nc2c(Cl)cccc2Cl)cc1 [Example 65, 4-{[(2,6-Dichloroanilino)carbonyl]amino}-benzamide]	9000 nM

Second part, the molecule after the results:

IC50	Compound
900 nM	O=C(NCc1ccccc1[N+](=O)[O-])Nc1ccc2c(c1)C(=O)NC2=O [Example 86, N-(1,3-Dioxo-2,3-dihydro-1H-5-isoindolyl)-N′-(2-nitrobenzyl)urea]
400 nM	O=C(Nc1ccc2c(c1)C(=O)NC2=O)Nc1ccc2[nH]ccc2c1 [Example 70, N-(1,3-Dioxo-2,3-dihydro-1H-5-isoindolyl)-N′-(1H-5-indolyl)urea]
2270 nM	O=C(Nc1ccc2c(c1)C(=O)NC2=O)Nc1c[nH]c2ccccc12 [Example 69, N-(1,3-Dioxo-2,3-dihydro-1H-5-isoindolyl)-N′-(1H-3-indolyl)urea]
300 nM	O=C(NCc1c(Cl)ccc(Cl)c1Cl)Nc1ccc2c(c1)C(=O)NC2=O [Example 89, N-(1,3-Dioxo-2,3-dihydro-1H-5-isoindolyl)-N′-(2,3,6-trichlorobenzyl)urea]
191 nM	O=C(Cc1cccc([N+](=O)[O-])c1)Nc1ccc2[nH]ncc2c1 [Example 48, N1-(1H-5-Indazolyl)-2-(3-nitrophenyl)acetamide]
4140 nM	O=C(NCc1ccc(Cl)cc1Cl)Nc1ccncc1 [Example 53, N-(2,4-Dichlorobenzyl)-N′-(4-pyridyl)urea]
7200 nM	O=C(NCc1ccccc1Cl)Nc1ccncc1 [Example 94, N-(2-Chlorobenzyl)-N′-(4-pyridyl)urea]
180 nM	O=C(NCc1cccc2ccccc12)Nc1ccc2c(c1)C(=O)NC2=O [Example 85, N-(1,3-Dioxo-2,3-dihydro-1H-5-isoindolyl)-N′-(1-naphthylmethyl)urea]
1040 nM	O=C(NCc1c(Cl)ccc(Cl)c1Cl)Nc1ccncc1 [Example 55, N′-(4-Pyridyl)-N-(2,3,6-trichlorobenzyl)urea]
440 nM	O=C(NCc1ccc(Cl)cc1Cl)Nc1ccc2c(c1)C(=O)NC2=O [Example 88, N-(2,4-Dichlorobenzyl)-N′-(1,3-dioxo-2,3-dihydro-1H-5-isoindolyl)urea]
195 nM	O=C(NCc1c(F)ccc(F)c1F)Nc1ccc2[nH]ncc2c1 [Example 110, N-(1H-5-Indazolyl)-N′-(2,3,6-trifluorobenzyl)urea]
90 nM	c1ccc(CNC2CCC(Nc3ccc4[nH]ncc4c3)CC2)cc1 (mixture of isomers) [Example 171, N1-Benzyl-N4-(1H-5-indazolyl)-1,4-cyclohexanediamine]
310 nM	Nc1cccc(CNC(=O)Nc2ccc3c(c2)C(=O)NC3=O)c1 [Example 112, N-(3-Aminobenzyl)-N′-(1,3-dioxo-2,3-dihydro-1H-5-isoindolyl)urea]
410 nM	O=C(NCc1ccccc1)Nc1ccc2c(c1)C(=O)NC2=O [Example 73, N-Benzyl-N′-(1,3-dioxo-2,3-dihydro-1H-5-isoindolyl)urea]
54 nM	O=C(NCc1c(Cl)cccc1Cl)Nc1cc2c(cc1Cl)C(=O)NC2=O [Example 81, N-(6-Chloro-1,3-dioxo-2,3-dihydro-1H-5-isoindolyl)-N′-(2,6-dichlorobenzyl)urea]
163 nM	c1ccc(CNCCNc2ccc3[nH]ncc3c2)cc1 [Example 174, N1-Benzyl-N2-(1H-5-indazolyl)-1,2-ethanediamine]
1690 nM	O=C(NCC1CCCCC1)Nc1ccc2c(c1)C(=O)NC2=O [Example 76, N-Cyclohexylmethyl-N′-(1,3-dioxo-2,3-dihydro-1H-5-isoindolyl)urea]
260 nM	O=C(NCc1ccccc1)Nc1ccc2[nH]ncc2c1 [Example 84, N-Benzyl-N′-(1H-5-indazolyl)urea]
1800 nM	O=C(NCc1c(Cl)ccc(Cl)c1Cl)Nc1ccc2[nH]ncc2c1 [Example 101, N-(1H-5-Indazolyl)-N′-(2,3,6-trichloro-benzyl)urea]
